Test results reported in patent publication US20240197867A1, “NEURAL CONTROL OF ADAPTIVE IMMUNITY” (The Feinstein Institutes for Medical Research, priority 2021, published 2024).

Target: T1, Gi-DREADD (hM4Di) on TRPV1+ neurons (Homo sapiens, UniProt P08173, A203G/Y113C)
T1 construct: expressed in transfected cells; host or cells: TRPV1+ neurons of TRPV1Cre/Gi-DREADD transgenic mice (TRPV1Cre x R26-LSL-Gi-DREADD), in vivo
T1 sequence (P08173 1-479 Y113C/A203G): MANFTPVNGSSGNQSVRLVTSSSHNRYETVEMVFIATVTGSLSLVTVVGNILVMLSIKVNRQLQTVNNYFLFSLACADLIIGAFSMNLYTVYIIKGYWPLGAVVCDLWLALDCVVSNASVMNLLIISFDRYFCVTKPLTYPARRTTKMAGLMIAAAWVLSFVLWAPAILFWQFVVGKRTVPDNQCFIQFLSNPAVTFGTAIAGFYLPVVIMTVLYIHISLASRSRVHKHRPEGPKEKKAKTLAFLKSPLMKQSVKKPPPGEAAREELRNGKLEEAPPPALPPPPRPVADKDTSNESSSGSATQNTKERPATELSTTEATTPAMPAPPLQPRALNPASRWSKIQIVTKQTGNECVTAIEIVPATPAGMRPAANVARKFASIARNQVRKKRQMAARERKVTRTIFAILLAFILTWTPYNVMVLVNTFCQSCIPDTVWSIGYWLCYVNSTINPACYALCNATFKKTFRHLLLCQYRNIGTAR
Test: Chemogenetic silencing of TRPV1+ neurons before intratracheal NP27-OVA immunization; NP-specific antibody titer by ELISA
Format: in vivo
Details: TRPV1-Gi-DREADD mice; CNO intraperitoneally 30 minutes prior to intratracheal immunization with NP27-OVA; D14 post-immunization; n=11; p=0.0017 vs vehicle
Experimental: FIG. 1. Silencing of sensory nerves at the time of primary immunization impacts antigen specific antibody responses. TRPV1^Cre/Gi-DREADD mice were administered with vehicle (DMSO) or CNO 30 min prior to immunization. Titer of NP-specific antibodies were monitored using ELISA.
Using an intra-tracheal instillation technique, specific antigens were delivered in the lung. Tracheal instillations are preferred methodology, over inhalation protocols that may primarily target the upper respiratory tract. This allows for making subsequent physiological measurements on test animals, or reinstallation using the same animal. Also, the dose of the inoculum introduced into the lungs can be carefully determined and more accurately delivered to ensure animal recovery. […] TRPV1+ neurons were selectively silenced at the time of immunization using a chemogenetic mouse model. The Gi-DREADD, also known as human muscarinic receptor 4 (hM4Di), is a mutated muscarinic acetylcholine receptor that, when activated by its ligand, CNO, initiates the inhibitory G-protein signaling cascade that inhibits neuronal signaling and/or excitability. TRPV1Cre/Gi-DREADD mice that express Gi-DREADD on TRPV1+ neurons were generated by crossing TRPV1Cre mice with R26-LSLGi-DREADD mice controls. […] Antibody levels were assessed over time. […]

For `C[N+]1([O-])CCN(C2=Nc3cc(Cl)ccc3Nc3ccccc32)CC1` [CNO, clozapine-N-oxide], the “Anti-NP IgG1, Mean±SEM” value was 42,525+14,641 U/mL.
